From US8552193B2, “Alternative forms of the phosphodiesterase-4 inhibitor N-cyclopropyl-1-{3-[(1-oxidopryidin-3-yl)ethynyl]phenyl}-4-oxo-1,4-dihydro-1,8-naphthyridine-3-carboxyamide” (Merck Sharp & Dohme Corp., priority 2004, dated 2013)

How the values were obtained:
[1] = Thermal stability: heating the sample for 24 h at 60° C. in air; format: physicochemical
Procedure: The thermal stability of the Form V was evaluated by heating the sample for 24 h at 60° C. in air. The dihydrate (Form V) readily dehydrates within 10 min of heating losing approximately 8.5% by weight (corresponding to ca. 2 moles of water per mole base).

[2] = Hygroscopicity: moisture sorption isotherms on a dynamic moisture balance; format: physicochemical
Procedure: The moisture sorption isotherms of Form V was determined at 25° C. using a dynamic moisture balance (MB-300G) (VTI Corp., Hialeah, Fla.) calibrated for weight with 10 to 100 mg standard weights and for moisture with polyvinylpyrrolidone. The value for the weight equilibrium criterion for each relative humidity is calculated based on the weight of the sample and the drift in the balance (0.001 mg). A value of 8 min. was used for the time criteria. The moisture sorption profile of the dihydrate (Form V) (Adsorption 1/Desorption 1) after drying in vacuo for 2 h is shown in FIG. 5. Form V dehydrates on drying to a different crystal form as shown by vacuum X-ray powder diffraction in FIG. 6, losing approximately 8% by weight. For purposes of this specification, this dehydrated dihydrate is identified as […]. This form appears to be the same as that obtained by heating the sample at 125° C., but different from that obtained on drying at 60° C. in air for 24 h. The latter form is identified as Form III. The Form II (dehydrated dihydrate) is hygroscopic converting to a hemihydrate between ca. 10-40% RH and a tetrahydrate at 90% RH (FIG. 5 and FIG. 7). However, the XRPD pattern for the hemihydrate is the same as that of the dehydrated dihydrate (Form II). For purposes of this specification this hemihydrate and tetrahydrate are identified as Form II and Form IV, respectively.
Form I is non-hygroscopic with a maximum weight change of ca. 1% at 90% RH. On desorption, the tetrahydrate (Form IV) remains unchanged between 90-60% RH but converts to dihydrate (Form V) at 45-15% RH (FIG. 5 and FIG. 8).
Since the X-ray diffraction patterns of the dehydrated dihydrate and the hemihydrate are the same, we conclude that the hemihydrate is isostructural with the dehydrated dihydrate form obtained on drying in vacuo. […]

Hygroscopicity (in words) ([2]; 25° C., dynamic moisture balance) | maximum weight change ([2]; at 90% RH, 25° C.) | Compound | time of heating until dehydration [1] | weight lost on heating (dehydration) [1] | weight lost on drying (dehydration to a different crystal form) ([2]; drying in vacuo for 2 h)
 |  | Compound IX Dihydrate [Dihydrate (Form V)] | ≤ 10 min | approximately 8.5 % by weight | approximately 8 % by weight
non-hygroscopic | ca. 1% | O=C(NC1CC1)c1cn(-c2cccc(C#Cc3ccc[n+]([O-])c3)c2)c2ncccc2c1=O [Form I, N-Cyclopropyl-1-{3-[(1-oxidopryidin-3-yl)ethynyl]phenyl}-4-oxo-1,4-dihydro-1,8-naphthyridine-3-carboxyamide] |  |  | 
